Numbers after ± are expanded uncertainties.
Assay: molar heat capacity at constant pressure
Details: 101.33 kPa, Liquid, Differential Scanning Calorimetry

Row | SMILES | molar heat capacity at constant pressure (308.16 K) | molar heat capacity at constant pressure (313.16 K) | molar heat capacity at constant pressure (318.16 K) | molar heat capacity at constant pressure (323.16 K) | molar heat capacity at constant pressure (328.22 K) | molar heat capacity at constant pressure (333.22 K) | molar heat capacity at constant pressure (338.19 K) | molar heat capacity at constant pressure (343.18 K) | molar heat capacity at constant pressure (348.25 K) | molar heat capacity at constant pressure (353.18 K) | molar heat capacity at constant pressure (358.25 K) | molar heat capacity at constant pressure (363.18 K)
1 | CCCC[n+]1ccn(C)c1.O=S(=O)([N-]S(=O)(=O)C(F)(F)F)C(F)(F)F | 573.13 ± 17 J/K/mol | 575.92 ± 17 J/K/mol | 577.32 ± 17 J/K/mol | 581.51 ± 17 J/K/mol | 584.31 ± 18 J/K/mol | 588.5 ± 18 J/K/mol | 588.5 ± 18 J/K/mol | 592.7 ± 18 J/K/mol | 595.49 ± 18 J/K/mol | 596.89 ± 18 J/K/mol | 599.68 ± 18 J/K/mol | 602.48 ± 18 J/K/mol
2 | CCCCn1cc[n+](C)c1.N#CN=C=[N-] [1-butyl-3-methylimidazolium dicyanamide] | 381.78 ± 11 J/K/mol | 384.86 ± 12 J/K/mol | 382.81 ± 11 J/K/mol | 386.92 ± 12 J/K/mol | 386.92 ± 12 J/K/mol | 388.97 ± 12 J/K/mol | 391.02 ± 12 J/K/mol | 392.05 ± 12 J/K/mol | 394.1 ± 12 J/K/mol | 395.13 ± 12 J/K/mol | 396.15 ± 12 J/K/mol | 399.23 ± 12 J/K/mol
3 | CCOS(=O)(=O)[O-].CCn1cc[n+](C)c1 [1-ethyl-3-methylimidazolium ethyl sulfate] | 393.42 ± 12 J/K/mol | 396.97 ± 12 J/K/mol | 399.33 ± 12 J/K/mol | 402.06 ± 12 J/K/mol | 405.24 ± 12 J/K/mol | 406.42 ± 12 J/K/mol | 408.78 ± 12 J/K/mol | 411.14 ± 12 J/K/mol | 414.69 ± 12 J/K/mol | 415.87 ± 12 J/K/mol | 418.23 ± 13 J/K/mol | 420.6 ± 13 J/K/mol

Reference: the NIST ThermoML archive (doi:10.1016/j.fluid.2010.03.010)
